Tests used:
[1] = test system: IL-2 stimulated STAT5 phosphorylation in Tall-1 human T cell line (JAK3); assay: Cellular JAK3 potency assay: inhibition of IL-2 stimulated pSTAT5 in Tall-1 T cells; format: cell-based; settings: IL-2 stimulated pSTAT5, Tall-1 T cells
How it was run: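 AlphaLISA SureFire Ultra measures STAT5 Tyr694/699 phosphorylation in lysed Tall-1 human T cells. Cells were exposed to compound for 1 h at 37 °C before a 30 min IL-2 challenge (300 ng/ml final). Values are pIC50 means with standard deviation from signal-versus-concentration curves.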

Tyk2 = Tyk2 (Homo sapiens (Human), UniProt P29597); assay: Biochemical Tyk2 kinase assay (LanthaScreen)
Chain of Tyk2 (P29597 whole entry): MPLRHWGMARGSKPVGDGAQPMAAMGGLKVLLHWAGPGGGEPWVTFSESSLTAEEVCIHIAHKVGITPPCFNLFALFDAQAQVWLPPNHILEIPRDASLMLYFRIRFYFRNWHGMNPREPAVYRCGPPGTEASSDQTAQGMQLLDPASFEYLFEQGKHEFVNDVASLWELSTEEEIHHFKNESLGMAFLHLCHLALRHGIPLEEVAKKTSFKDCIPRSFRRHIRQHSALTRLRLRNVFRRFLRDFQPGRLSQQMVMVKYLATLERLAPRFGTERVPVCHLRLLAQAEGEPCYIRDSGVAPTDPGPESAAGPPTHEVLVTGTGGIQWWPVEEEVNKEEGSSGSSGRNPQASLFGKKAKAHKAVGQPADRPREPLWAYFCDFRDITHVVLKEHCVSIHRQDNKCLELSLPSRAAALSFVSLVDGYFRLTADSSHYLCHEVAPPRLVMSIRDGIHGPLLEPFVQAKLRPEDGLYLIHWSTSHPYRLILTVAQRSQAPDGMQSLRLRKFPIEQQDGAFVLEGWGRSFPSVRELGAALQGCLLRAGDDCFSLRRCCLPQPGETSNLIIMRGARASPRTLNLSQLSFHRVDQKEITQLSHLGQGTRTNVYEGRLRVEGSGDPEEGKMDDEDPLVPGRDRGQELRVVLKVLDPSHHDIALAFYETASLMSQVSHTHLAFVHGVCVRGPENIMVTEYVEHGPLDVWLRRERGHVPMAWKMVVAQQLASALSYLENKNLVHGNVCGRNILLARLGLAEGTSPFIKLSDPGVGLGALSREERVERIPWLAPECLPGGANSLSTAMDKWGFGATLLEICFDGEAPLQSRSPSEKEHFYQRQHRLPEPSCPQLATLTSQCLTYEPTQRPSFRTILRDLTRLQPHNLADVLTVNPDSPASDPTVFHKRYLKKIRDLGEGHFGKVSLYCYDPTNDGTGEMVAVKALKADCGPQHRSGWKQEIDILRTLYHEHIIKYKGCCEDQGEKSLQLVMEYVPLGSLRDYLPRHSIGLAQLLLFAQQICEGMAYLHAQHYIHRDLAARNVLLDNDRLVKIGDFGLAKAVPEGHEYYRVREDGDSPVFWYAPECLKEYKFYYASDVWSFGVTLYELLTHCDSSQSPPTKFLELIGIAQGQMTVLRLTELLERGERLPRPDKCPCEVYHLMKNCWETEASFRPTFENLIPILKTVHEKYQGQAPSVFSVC
How it was run: (§1)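 GST-JAK + GFP-STAT1 peptide, HEPES pH 7.5/MgCl2/EGTA/Brij-35 buffer; cpd preincubation 1 h RT; ATP start, 1 h RT; stop with 10 mM EDTA + 2 nM Tb-anti-pSTAT1; TR-FRET 520/495. 4-parameter IC50 → pKi (Cheng-Prusoff).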

JAK1 = JAK1 (Homo sapiens (Human), UniProt P23458); assay: Biochemical JAK1 kinase assay (LanthaScreen)
Chain of JAK1 (P23458 whole entry): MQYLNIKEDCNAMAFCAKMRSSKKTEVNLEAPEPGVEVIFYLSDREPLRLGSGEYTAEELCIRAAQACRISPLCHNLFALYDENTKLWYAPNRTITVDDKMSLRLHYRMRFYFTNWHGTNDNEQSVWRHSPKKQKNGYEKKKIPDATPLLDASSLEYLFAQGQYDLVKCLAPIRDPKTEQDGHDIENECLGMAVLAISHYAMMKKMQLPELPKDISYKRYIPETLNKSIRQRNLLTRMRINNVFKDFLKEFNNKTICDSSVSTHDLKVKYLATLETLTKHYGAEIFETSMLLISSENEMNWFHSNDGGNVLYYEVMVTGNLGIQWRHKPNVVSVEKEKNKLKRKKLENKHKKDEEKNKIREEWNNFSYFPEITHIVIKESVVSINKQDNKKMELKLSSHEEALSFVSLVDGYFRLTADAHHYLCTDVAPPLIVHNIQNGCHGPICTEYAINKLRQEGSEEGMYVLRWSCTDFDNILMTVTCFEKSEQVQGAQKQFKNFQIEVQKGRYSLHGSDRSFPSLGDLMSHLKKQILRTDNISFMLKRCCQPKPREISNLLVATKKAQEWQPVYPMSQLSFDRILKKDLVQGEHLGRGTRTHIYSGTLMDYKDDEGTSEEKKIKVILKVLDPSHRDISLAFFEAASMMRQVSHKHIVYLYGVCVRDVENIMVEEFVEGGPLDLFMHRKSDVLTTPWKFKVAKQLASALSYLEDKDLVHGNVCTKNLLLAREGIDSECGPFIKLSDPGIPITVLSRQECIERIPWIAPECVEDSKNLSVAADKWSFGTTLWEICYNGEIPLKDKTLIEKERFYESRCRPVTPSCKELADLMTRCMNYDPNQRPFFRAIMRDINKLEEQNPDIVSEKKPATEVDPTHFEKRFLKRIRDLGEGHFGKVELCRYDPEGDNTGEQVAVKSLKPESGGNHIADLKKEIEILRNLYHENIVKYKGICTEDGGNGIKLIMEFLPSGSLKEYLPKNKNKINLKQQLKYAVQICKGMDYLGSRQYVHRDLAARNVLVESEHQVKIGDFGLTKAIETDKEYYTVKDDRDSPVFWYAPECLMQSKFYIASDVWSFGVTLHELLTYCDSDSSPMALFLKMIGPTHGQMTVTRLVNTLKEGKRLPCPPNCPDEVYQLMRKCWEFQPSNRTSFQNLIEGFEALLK
How it was run: as §1

JAK2 = JAK2 (Homo sapiens (Human), UniProt O60674); assay: Biochemical JAK2 kinase assay (LanthaScreen)
Chain of JAK2 (O60674 whole entry): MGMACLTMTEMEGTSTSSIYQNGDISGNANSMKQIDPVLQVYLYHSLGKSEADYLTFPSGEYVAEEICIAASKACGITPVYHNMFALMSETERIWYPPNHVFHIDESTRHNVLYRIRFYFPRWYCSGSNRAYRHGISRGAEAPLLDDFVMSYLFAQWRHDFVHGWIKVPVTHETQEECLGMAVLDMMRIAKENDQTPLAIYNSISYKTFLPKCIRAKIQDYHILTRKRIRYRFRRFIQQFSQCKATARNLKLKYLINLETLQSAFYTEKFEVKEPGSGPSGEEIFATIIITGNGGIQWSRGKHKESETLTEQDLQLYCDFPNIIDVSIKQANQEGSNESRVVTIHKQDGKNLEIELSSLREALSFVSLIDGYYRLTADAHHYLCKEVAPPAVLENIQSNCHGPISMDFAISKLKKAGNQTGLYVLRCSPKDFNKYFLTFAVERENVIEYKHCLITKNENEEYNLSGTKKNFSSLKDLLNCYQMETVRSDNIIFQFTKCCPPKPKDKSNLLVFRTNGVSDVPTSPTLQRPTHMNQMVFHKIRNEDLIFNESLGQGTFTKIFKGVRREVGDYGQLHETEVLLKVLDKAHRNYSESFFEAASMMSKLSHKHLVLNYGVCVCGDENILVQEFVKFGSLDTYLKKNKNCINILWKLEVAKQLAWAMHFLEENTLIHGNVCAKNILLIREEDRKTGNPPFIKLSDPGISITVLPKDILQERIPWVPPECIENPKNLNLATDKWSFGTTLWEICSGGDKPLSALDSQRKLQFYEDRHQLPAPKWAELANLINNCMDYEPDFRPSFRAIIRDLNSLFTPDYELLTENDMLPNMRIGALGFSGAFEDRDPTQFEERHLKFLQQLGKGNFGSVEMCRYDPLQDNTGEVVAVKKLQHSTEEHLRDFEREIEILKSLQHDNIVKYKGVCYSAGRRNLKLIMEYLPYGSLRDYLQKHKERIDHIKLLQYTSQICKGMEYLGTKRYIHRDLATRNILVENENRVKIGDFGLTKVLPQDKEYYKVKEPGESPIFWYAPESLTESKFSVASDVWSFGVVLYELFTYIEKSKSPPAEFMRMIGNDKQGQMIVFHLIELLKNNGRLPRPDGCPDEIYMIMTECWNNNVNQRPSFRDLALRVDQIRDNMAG
How it was run: as §1

JAK3 = JAK3 (Homo sapiens (Human), UniProt P52333); assay: Biochemical JAK3 kinase assay (LanthaScreen); settings: for JAK3 (pKi)-JAK1 (pKi): selectivity JAK3 over JAK1, difference of pKi
Chain of JAK3 (P52333 whole entry): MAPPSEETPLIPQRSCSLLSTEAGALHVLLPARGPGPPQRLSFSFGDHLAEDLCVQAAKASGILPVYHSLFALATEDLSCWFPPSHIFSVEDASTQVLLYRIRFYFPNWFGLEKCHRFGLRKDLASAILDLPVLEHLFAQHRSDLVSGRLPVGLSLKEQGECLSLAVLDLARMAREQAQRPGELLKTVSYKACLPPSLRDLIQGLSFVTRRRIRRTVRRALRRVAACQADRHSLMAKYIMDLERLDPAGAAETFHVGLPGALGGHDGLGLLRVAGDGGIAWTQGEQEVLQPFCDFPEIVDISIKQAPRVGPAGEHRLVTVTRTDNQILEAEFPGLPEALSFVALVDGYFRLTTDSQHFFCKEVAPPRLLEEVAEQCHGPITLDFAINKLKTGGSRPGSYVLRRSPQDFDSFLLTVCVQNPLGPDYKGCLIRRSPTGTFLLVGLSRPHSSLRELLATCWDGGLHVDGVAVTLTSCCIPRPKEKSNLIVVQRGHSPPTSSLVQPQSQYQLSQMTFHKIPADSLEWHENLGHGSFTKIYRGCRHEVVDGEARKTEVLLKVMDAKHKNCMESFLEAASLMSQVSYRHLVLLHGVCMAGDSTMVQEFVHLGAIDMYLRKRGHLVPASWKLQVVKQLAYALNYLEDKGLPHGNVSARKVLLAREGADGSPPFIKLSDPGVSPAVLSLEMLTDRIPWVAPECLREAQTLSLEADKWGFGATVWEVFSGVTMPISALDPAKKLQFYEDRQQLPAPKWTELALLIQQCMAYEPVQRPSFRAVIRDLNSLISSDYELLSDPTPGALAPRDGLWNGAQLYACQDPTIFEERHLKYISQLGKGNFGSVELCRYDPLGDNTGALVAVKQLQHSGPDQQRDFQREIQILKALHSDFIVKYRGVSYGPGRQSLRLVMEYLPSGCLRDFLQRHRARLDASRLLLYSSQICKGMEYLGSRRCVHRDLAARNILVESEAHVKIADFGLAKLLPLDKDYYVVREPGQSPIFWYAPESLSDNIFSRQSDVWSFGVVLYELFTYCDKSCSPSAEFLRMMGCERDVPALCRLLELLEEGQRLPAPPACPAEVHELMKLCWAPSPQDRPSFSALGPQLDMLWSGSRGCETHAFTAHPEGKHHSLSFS
How it was run: as §1

Caco-2 cell monolayers = assay: Caco-2 permeation assay; format: in vitro ADME; settings: 5 μM, A-B direction, with Verapamil (25 μM)
Description: Assay 4: Caco-2 Permeation Assay
The Caco-2 permeation assay was performed to model the ability of test compounds to pass through the intestine and get into the blood stream after oral administration. The rate at which test compounds in solution permeate a cell monolayer designed to mimic the tight junction of human small intestinal monolayers was determined.
CacoReady 24-well transwell plates were obtained from ADMEcell (Alameda, Calif.). The compounds were evaluated at a concentration of 5 μM from 10 mM DMSO stock solutions in duplicate (n=2). The passive permeability of the compounds tested was evaluated using Caco-2 cell monolayers along with Verapamil (25 μM) to inhibit P-gp transport proteins in the apical to basolateral (A-B) direction. The experiment was conducted in a 37° C., 5% CO2 incubator. Caco-2 culture media consisted of standard filtered DMEM, FCS 10%, L-Glutamine 1% and PenStrep 1%. Basal assay plate was prepared by adding 750 μL of transport buffer to A-B wells. A CacoReady™ plate was prepared by removing the Caco-2 media from the apical wells and replacing with fresh transport media (200 μL repeated for a total of 3 washes). Blank media (200 μL) was then replaced with diluted compound for A-B wells. To begin the incubation, the basal plate was removed from the incubator and the apical section was added on top of it. Samples (40 μL) were collected from the apical and basal compartments for time zero (t0). Samples were collected again after 120 minutes (t120) from the apical and basal compartments. All samples were diluted and prepared for bioanalysis by LC-MS/MS. The permeation coefficient (Kp, mean A to B+ Verapamil Papparent) in cm/sec was calculated as dQ (flux)/(dt×Area×concentration).
In this assay, a Kp value less than about 5×10^−6 cm/sec is considered favorable to minimize systemic exposure and target the colon. A Kp value less than about 10×10^−6 cm/sec may also be sufficient to minimize systemic exposure and target the colon.

Compound	Tall-1 (pIC50) [1]	Tyk 2 (pKi) (Tyk2)	JAK 1 (pKi) (JAK1)	JAK 2 (pKi) (JAK2)	JAK 3 (pKi) (JAK3)	JAK3 (pKi)-JAK1 (pKi) (JAK3)	Caco Kp (Caco-2 cell monolayers)
C=CC(=O)N1CC(CCn2c(=O)ccc3cnc(Nc4cccc(OC)c4)nc32)C1 [Example 19]	C (C represents a pIC50 value between 6 and 6.7 (IC50 between 1 μM and 200 nM))	E (E represents a pKi value of 7 or below (Ki of 100 nM or above))	E (E represents a pKi value of 7 or below (Ki of 100 nM or above))	E (E represents a pKi value of 7 or below (Ki of 100 nM or above))	B (B represents pKi value between 9 and 10 (Ki between 1 nM and 0.1 nM))	A (A represents a value of 3 or above)	C (C represents a value between 10×10^−6 and 30×10^−6 cm/sec)
C=CC(=O)N1CC(CCn2c(=O)ccc3cnc(Nc4cnn(CCOC(F)F)c4)nc32)C1 [Example 25]	C (C represents a pIC50 value between 6 and 6.7 (IC50 between 1 μM and 200 nM))	E (E represents a pKi value of 7 or below (Ki of 100 nM or above))	E (E represents a pKi value of 7 or below (Ki of 100 nM or above))	E (E represents a pKi value of 7 or below (Ki of 100 nM or above))	B (B represents pKi value between 9 and 10 (Ki between 1 nM and 0.1 nM))	A (A represents a value of 3 or above)	B (B represents a value between 5×10^−6 and 10×10^−6 cm/sec)
C=CC(=O)N1CCN(CCn2c(=O)ccc3cnc(Nc4cnn(C)c4)nc32)[C@@H](C)C1 [Example 30]	B (B represents a pC50 value between 6.7 (included) and 7.5 (IC50 between 200 nM and 32 nM))	E (E represents a pKi value of 7 or below (Ki of 100 nM or above))	E (E represents a pKi value of 7 or below (Ki of 100 nM or above))	E (E represents a pKi value of 7 or below (Ki of 100 nM or above))	A (A represents a pKi value≥10 (Ki≤0.1 nM))	A (A represents a value of 3 or above)	A (A represents a value below 5×10^−6 cm/sec)
C=CC(=O)N1CCN(CCn2c(=O)ccc3cnc(Nc4cnn(C)c4)nc32)CC12CC2 [Example 32]	B (B represents a pC50 value between 6.7 (included) and 7.5 (IC50 between 200 nM and 32 nM))	E (E represents a pKi value of 7 or below (Ki of 100 nM or above))	E (E represents a pKi value of 7 or below (Ki of 100 nM or above))	E (E represents a pKi value of 7 or below (Ki of 100 nM or above))	B (B represents pKi value between 9 and 10 (Ki between 1 nM and 0.1 nM))	A (A represents a value of 3 or above)	B (B represents a value between 5×10^−6 and 10×10^−6 cm/sec)
C=CC(=O)N1CC(CCn2c(=O)ccc3cnc(Nc4cnn(C5CCN(C)CC5)c4)nc32)C1 [Example 51]	B (B represents a pC50 value between 6.7 (included) and 7.5 (IC50 between 200 nM and 32 nM))	E (E represents a pKi value of 7 or below (Ki of 100 nM or above))	E (E represents a pKi value of 7 or below (Ki of 100 nM or above))	E (E represents a pKi value of 7 or below (Ki of 100 nM or above))	B (B represents pKi value between 9 and 10 (Ki between 1 nM and 0.1 nM))	A (A represents a value of 3 or above)	A (A represents a value below 5×10^−6 cm/sec)
C=CC(=O)N1CC(CCn2c(=O)ccc3cnc(Nc4cnn(CCN(CC)CC)c4)nc32)C1 [Example 55]	B (B represents a pC50 value between 6.7 (included) and 7.5 (IC50 between 200 nM and 32 nM))	E (E represents a pKi value of 7 or below (Ki of 100 nM or above))	E (E represents a pKi value of 7 or below (Ki of 100 nM or above))	E (E represents a pKi value of 7 or below (Ki of 100 nM or above))	B (B represents pKi value between 9 and 10 (Ki between 1 nM and 0.1 nM))	A (A represents a value of 3 or above)	A (A represents a value below 5×10^−6 cm/sec)
C=CC(=O)N1CC(CCn2c(=O)ccc3cnc(Nc4ccc5c(c4)oc(=O)n5C)nc32)C1 [Example 60]	B (B represents a pC50 value between 6.7 (included) and 7.5 (IC50 between 200 nM and 32 nM))	E (E represents a pKi value of 7 or below (Ki of 100 nM or above))	E (E represents a pKi value of 7 or below (Ki of 100 nM or above))	E (E represents a pKi value of 7 or below (Ki of 100 nM or above))	B (B represents pKi value between 9 and 10 (Ki between 1 nM and 0.1 nM))	A (A represents a value of 3 or above)	B (B represents a value between 5×10^−6 and 10×10^−6 cm/sec)
C=CC(=O)N1CC(CCn2c(=O)ccc3cnc(Nc4cnn(CCN5CCOCC5)c4)nc32)C1 [Example 61]	B (B represents a pC50 value between 6.7 (included) and 7.5 (IC50 between 200 nM and 32 nM))	E (E represents a pKi value of 7 or below (Ki of 100 nM or above))	E (E represents a pKi value of 7 or below (Ki of 100 nM or above))	E (E represents a pKi value of 7 or below (Ki of 100 nM or above))	B (B represents pKi value between 9 and 10 (Ki between 1 nM and 0.1 nM))	A (A represents a value of 3 or above)	A (A represents a value below 5×10^−6 cm/sec)
C=CC(=O)N1CC(CCn2c(=O)ccc3cnc(Nc4ccc(N5CCN(C(C)(C)C)CC5)cc4)nc32)C1 [Example 62]	A (A represents a pIC50 value≥7.5 (IC50≤32 nM))	E (E represents a pKi value of 7 or below (Ki of 100 nM or above))	E (E represents a pKi value of 7 or below (Ki of 100 nM or above))	E (E represents a pKi value of 7 or below (Ki of 100 nM or above))	B (B represents pKi value between 9 and 10 (Ki between 1 nM and 0.1 nM))	A (A represents a value of 3 or above)	B (B represents a value between 5×10^−6 and 10×10^−6 cm/sec)
C=CC(=O)N1CC(CCn2c(=O)ccc3cnc(Nc4cnn(CCF)c4)nc32)C1 [Example 63]	B (B represents a pC50 value between 6.7 (included) and 7.5 (IC50 between 200 nM and 32 nM))	E (E represents a pKi value of 7 or below (Ki of 100 nM or above))	E (E represents a pKi value of 7 or below (Ki of 100 nM or above))	E (E represents a pKi value of 7 or below (Ki of 100 nM or above))	B (B represents pKi value between 9 and 10 (Ki between 1 nM and 0.1 nM))	A (A represents a value of 3 or above)	A (A represents a value below 5×10^−6 cm/sec)

— patent US11697648B2, “Fused pyrimidine pyridinone compounds as JAK inhibitors” (THERAVANCE BIOPHARMA R&D IP, LLC, priority 2019, dated 2023)
